Legend:
[1] = system: Bacterial reverse mutation; test: Bacterial reverse mutation assay (AMES); type: cell-based; conditions: presence and absence of metabolic activation, upto 415 μg/ml
Procedure: 3-hydroxypterostilbene is non mutagenic in the Bacterial reverse mutation assay (AMES), both in the presence and absence of metabolic activation, upto a workable concentration of 415 μg/ml.

Question: Which “SC50, DPPH scavenging” value (DPPH scavenging assay) does the source give for `COc1cc(/C=C/c2ccc(O)c(O)c2)cc(OC)c1` [3-hydroxypterostilbene] here?
Answer: The value was “SC50 is 1.34 μg/ml”.

Question: And the Mutagenicity [1]?
Answer: Its Mutagenicity is “non mutagenic”.

— patent US20100204340A1 (priority 2009, published 2010)
